In ChEMBL document CHEMBL1201862, “PubChem BioAssay data set” (2004):
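Cells were grown in 96-well plates and exposed to each compound for 48 hours at five concentrations; endpoints were interpolated linearly between bracketing concentrations, or set to the highest concentration if not reached. Abbreviation: GI50, concentration required for 50% inhibition of growth.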 Active and inactive are the calls of the source. No stated cut-off is given here; in the data, active = GI50 up to about 1.1 µM and inactive = higher.

Tests used:
Assay in all cases: NCI anticancer screen, dose series, 48 h
[1] = tested on: SNB-75
[2] = tested on: OVCAR-3
[3] = tested on: NCI-H23
[4] = tested on: KM12
[5] = tested on: HCT-15
[6] = tested on: SNB-78
[7] = tested on: UACC-257
[8] = tested on: HOP-18
[9] = tested on: M19-MEL
[10] = tested on: SNB-19
[11] = tested on: DMS-273
[12] = tested on: HCC 2998
[13] = tested on: NCI-H226
[14] = tested on: XF498
[15] = tested on: NCI-H460
[16] = tested on: HT-29
[17] = tested on: SK-MEL-2
[18] = tested on: A549
[19] = tested on: IGROV-1
[20] = tested on: TK-10

Row | SMILES | GI50 [1] | GI50 [2] | GI50 [3] | GI50 [4] | GI50 [5] | GI50 [6] | GI50 [7] | GI50 [8] | GI50 [9] | GI50 [10] | GI50 [11] | GI50 [12] | GI50 [13] | GI50 [14] | GI50 [15] | GI50 [16] | GI50 [17] | GI50 [18] | GI50 [19] | GI50 [20]
1 | O=NN(CCCl)C(=O)N[C@H]1CC[C@@H](O)CC1 | 22.6 µM (inactive) | 33.2 µM (inactive) | 39.5 µM (inactive) | 67.5 µM (inactive) | 21.6 µM | 24.7 µM (inactive) | 32.3 µM (inactive) | 35.2 µM (inactive) | 27.9 µM (inactive) | 51.2 µM (inactive) | 34.8 µM (inactive) | 81.5 µM (inactive) | 34.2 µM (inactive) | 21.5 µM (inactive) | 28.3 µM (inactive) | 60.3 µM (inactive) | > 100 µM (inactive) | 81.3 µM (inactive) | 68.4 µM (inactive) | –
2 | CCOC(=O)Cn1c(=O)c(C)cn(COCCO)c1=O | > 100 µM (inactive) | > 100 µM (inactive) | > 100 µM (inactive) | > 100 µM (inactive) | – | – | > 100 µM (inactive) | – | – | > 100 µM (inactive) | – | > 100 µM (inactive) | 0.155 µM (active) | – | > 100 µM (inactive) | > 100 µM (inactive) | > 100 µM (inactive) | > 100 µM (inactive) | > 100 µM (inactive) | > 100 µM (inactive)
3 | Cc1cccc2ns[s+]c12 | 59 µM (inactive) | > 100 µM (inactive) | > 100 µM (inactive) | > 100 µM (inactive) | 19.4 µM | > 100 µM (inactive) | > 100 µM (inactive) | > 100 µM (inactive) | – | 66.8 µM (inactive) | 52.4 µM (inactive) | > 100 µM (inactive) | > 100 µM (inactive) | – | 23 µM (inactive) | 43.1 µM (inactive) | – | > 100 µM (inactive) | > 100 µM (inactive) | > 100 µM (inactive)
4 | CCN1CCCC(NCc2c3ccccc3c(CNC3CCCN(CC)C3)c3ccccc23)C1 (centres undefined) | 7.98 µM (inactive) | 3.8 µM (inactive) | 15.6 µM (inactive) | 5.45 µM (inactive) | 12.5 µM | 22.3 µM (inactive) | 10.9 µM (inactive) | 5.92 µM (inactive) | 7.45 µM (inactive) | 11.1 µM (inactive) | 5.56 µM (inactive) | 13.1 µM (inactive) | 13.4 µM (inactive) | 20.5 µM (inactive) | 3.65 µM (inactive) | 2.6 µM (inactive) | 5.16 µM (inactive) | > 48 µM (inactive) | 16.2 µM (inactive) | –
5 | CCCCS(=N)(=O)CC[C@H](N)C(=O)O (some centres undefined) [BUTHIONINE SULFOXIME] | 2320 µM (inactive) | > 4130 µM (inactive) | 3420 µM (inactive) | > 5000 µM (inactive) | 4250 µM | > 5000 µM (inactive) | > 5000 µM (inactive) | > 5000 µM (inactive) | > 5000 µM (inactive) | > 5000 µM (inactive) | > 5000 µM (inactive) | > 5000 µM (inactive) | > 5000 µM (inactive) | 476 µM (inactive) | 4730 µM (inactive) | > 5000 µM (inactive) | > 5000 µM (inactive) | > 5000 µM (inactive) | 2110 µM (inactive) | > 5000 µM (inactive)
